Results on five molecules are retold here after patent US8822517B2, “Arylosulfonamides for the treatment of CNS diseases” (Adamed SP. Z O.O., priority 2010, dated 2014).

Experiment [1] addresses T1, serotonine transporter (SERT) receptor (Homo sapiens, UniProt P31645).
T1 construct: expressed in transfected cells; host or cells: CHO cells
The experiment can be described thus: Binding assay SERT (h), [3H]imipramine, CHO cells. As to conditions: read-out: SERT [%]. An outline of the steps: (§1)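 Detection relied on scintillation counting of bound ligand. Compounds at 1×10^−6 M were evaluated against specific binding, i.e. total binding corrected for the nonspecific fraction seen with excess unlabelled ligand.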

Another experiment deals with sigma σ receptor. The experiment can be described thus: Binding assay σ (non-selective), [3H]DTG, rat cerebral cortex. The conditions noted are these: percent inhibition of control specific binding; compounds tested at 1×10^−6 M. The essentials: as §1
For a further experiment, the system named is adrenergic α1 receptor. In words: Binding assay α1 (non-selective), [3H]prazosin, rat cerebral cortex. The conditions noted are these: percent inhibition of control specific binding; compounds tested at 1×10^−6 M. An outline of the steps: as §1
Another experiment concerns the target T2, muscarinic M3 receptor (Homo sapiens, UniProt P20309).
T2 construct: expressed in transfected cells; host or cells: CHO cells
The experiment can be described thus: Binding assay M3 (h), [3H]4-DAMP, CHO cells. As to conditions: read-out: M3 [%]. An outline of the steps: as §1

Experiment [2] concerns the target T3, serotoninergic receptor 5-HT2C (Homo sapiens, UniProt P28335).
T3 construct: expressed in transfected cells; host or cells: HEK-293 cells
T3 sequence (P28335 33-458): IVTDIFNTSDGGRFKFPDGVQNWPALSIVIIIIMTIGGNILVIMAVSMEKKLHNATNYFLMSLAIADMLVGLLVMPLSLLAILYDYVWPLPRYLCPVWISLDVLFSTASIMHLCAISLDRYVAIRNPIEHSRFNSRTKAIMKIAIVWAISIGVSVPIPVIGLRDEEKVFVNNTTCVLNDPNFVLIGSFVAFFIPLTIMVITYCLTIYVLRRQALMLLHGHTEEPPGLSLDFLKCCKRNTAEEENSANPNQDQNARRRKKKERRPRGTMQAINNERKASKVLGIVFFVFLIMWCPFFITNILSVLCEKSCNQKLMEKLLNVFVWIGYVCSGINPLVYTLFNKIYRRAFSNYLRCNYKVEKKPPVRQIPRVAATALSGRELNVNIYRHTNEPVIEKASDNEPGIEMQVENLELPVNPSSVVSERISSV
The experiment can be described thus: Binding assay 5-HT2C (h), [3H]mesulergine, HEK-293 cells. The conditions noted are these: read-out: 5-HT2C [%]. The essentials:
as §1

For experiment [3], the target named is T4, serotoninergic 5-HT6 receptor (Homo sapiens, UniProt P50406). In words: Cellular functional assay, serotoninergic 5-HT6 receptor (agonism/antagonism). The conditions noted are these: for activation at 1 µM: agonist effect, percent of control specific agonist response, compounds tested at 1×10^−6M, read-out: 5-HT6-ag [%]; for inhibition at 1 µM: read-out: 5-HT6-antag. [%]. The experiment is classed as cell-based. How it is done: (§2) The compounds were tested at the concentration of 1×10^−6M.
(§3) In the Tables ag refers to agonism, and antag to antagonism).

The target of experiment [4] is T5, serotoninergic 5-HT7 receptor (Homo sapiens, UniProt P34969). In words: Cellular functional assay, serotoninergic 5-HT7 receptor (agonism/antagonism). As to conditions: for activation at 1 µM: agonist effect, percent of control specific agonist response, compounds tested at 1×10^−6M, read-out: 5-HT7-ag [%]; for inhibition at 1 µM: read-out: 5-HT7-antag. [%]. The experiment is classed as cell-based. How it is done: as §2, §3

The target of another experiment is dopaminergic D3 receptor (Homo sapiens, UniProt P35462). In words: Binding assay D3 (h), [3H]methyl-spiperone, CHO cells. Also noted: expressed in transfected cells; host or cells: CHO cells. As to conditions: read-out: D3 [%]. An outline of the steps:
as §1

In experiment [5] the target is T4, serotoninergic 5-HT6 receptor. In words: Binding assay 5-HT6 (h), [3H]LSD, CHO cells. Details: expressed in transfected cells; host or cells: CHO cells. The conditions noted are these: read-out: 5-HT6. An outline of the steps: as §1
Experiment [6] has as its target T5, serotoninergic 5-HT7 receptor. In words: Binding assay 5-HT7 (h), [3H]LSD, CHO cells. Also noted: expressed in transfected cells; host or cells: CHO cells. The conditions noted are these: read-out: 5-HT7. The essentials: as §1
The target in another experiment is T6, adrenergic α2C receptor (Homo sapiens, UniProt P18825).
T6 sequence (P18825 1-462): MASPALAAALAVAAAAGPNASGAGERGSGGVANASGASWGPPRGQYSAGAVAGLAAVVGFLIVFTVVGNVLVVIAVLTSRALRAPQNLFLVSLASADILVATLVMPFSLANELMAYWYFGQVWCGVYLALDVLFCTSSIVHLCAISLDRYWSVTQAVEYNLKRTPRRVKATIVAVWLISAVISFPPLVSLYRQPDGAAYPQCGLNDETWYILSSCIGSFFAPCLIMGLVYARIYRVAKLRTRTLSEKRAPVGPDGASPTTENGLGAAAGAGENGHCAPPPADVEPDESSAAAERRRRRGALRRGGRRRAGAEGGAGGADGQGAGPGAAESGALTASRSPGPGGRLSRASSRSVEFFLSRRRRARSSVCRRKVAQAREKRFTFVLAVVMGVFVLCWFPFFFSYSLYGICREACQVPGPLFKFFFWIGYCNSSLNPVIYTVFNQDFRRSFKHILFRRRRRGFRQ
In words: Binding assay α2C (h), [3H]RX 821002, CHO cells. Details: expressed in transfected cells; host or cells: CHO cells. As to conditions: read-out: α2C [%]. The essentials: as §1

The target of a further experiment is dopaminergic D2 receptor (Homo sapiens, UniProt P14416). The experiment can be described thus: Binding assay D2S (h), [3H]methyl-spiperone, HEK-293 cells. Details: expressed in transfected cells; host or cells: HEK-293 cells. As to conditions: read-out: D2 [%]. An outline of the steps:
as §1

The target of experiment [7] is T7, serotoninergic 5-HT1A receptor (Homo sapiens, UniProt P08908).
T7 sequence (P08908 1-422): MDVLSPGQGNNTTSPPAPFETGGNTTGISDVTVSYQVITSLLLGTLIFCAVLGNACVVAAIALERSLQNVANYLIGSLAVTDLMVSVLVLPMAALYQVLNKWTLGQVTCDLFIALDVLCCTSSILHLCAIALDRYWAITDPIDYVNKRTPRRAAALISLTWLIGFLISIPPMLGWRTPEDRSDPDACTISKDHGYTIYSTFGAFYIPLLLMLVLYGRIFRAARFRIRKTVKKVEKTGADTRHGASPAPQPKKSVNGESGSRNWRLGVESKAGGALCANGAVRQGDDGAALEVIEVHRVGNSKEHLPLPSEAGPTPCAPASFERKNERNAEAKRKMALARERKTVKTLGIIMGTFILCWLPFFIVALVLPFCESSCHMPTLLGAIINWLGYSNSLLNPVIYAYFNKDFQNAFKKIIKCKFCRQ
In words: Binding assay 5-HT1A (h), [3H]8-OH-DPAT, HEK-293 cells. Also noted: expressed in transfected cells; host or cells: HEK-293 cells. As to conditions: read-out: 5-HT1A. An outline of the steps:
as §1

Experiment [8] addresses serotoninergic 5-HT2A receptor (Homo sapiens, UniProt P28223). In words: Binding assay 5-HT2A (h), [3H]ketanserin, HEK-293 cells. Also noted: expressed in transfected cells; host or cells: HEK-293 cells. As to conditions: read-out: 5-HT2A. The essentials: as §1
Experiment [9] addresses histaminergic H1 receptor (Homo sapiens, UniProt P35367). The experiment can be described thus: Binding assay H1 (h), [3H]pyrilamine, HEK-293 cells. Also noted: expressed in transfected cells; host or cells: HEK-293 cells. The conditions noted are these: read-out: H1 [%]. An outline of the steps: as §1

Chain of serotoninergic 5-HT2A receptor (P28223 whole entry): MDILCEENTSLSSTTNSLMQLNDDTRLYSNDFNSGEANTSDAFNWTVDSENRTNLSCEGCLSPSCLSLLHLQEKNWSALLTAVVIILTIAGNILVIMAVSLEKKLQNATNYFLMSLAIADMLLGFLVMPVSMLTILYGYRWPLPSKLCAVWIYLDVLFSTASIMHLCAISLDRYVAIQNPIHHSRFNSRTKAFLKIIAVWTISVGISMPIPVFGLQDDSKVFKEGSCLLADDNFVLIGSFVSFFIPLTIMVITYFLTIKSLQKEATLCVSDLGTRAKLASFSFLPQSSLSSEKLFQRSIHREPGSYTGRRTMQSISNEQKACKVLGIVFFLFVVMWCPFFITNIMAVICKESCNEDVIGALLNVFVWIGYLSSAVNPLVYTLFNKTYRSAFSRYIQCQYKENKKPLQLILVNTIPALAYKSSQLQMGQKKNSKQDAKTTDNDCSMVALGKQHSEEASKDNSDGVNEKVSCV
Chain of dopaminergic D3 receptor (P35462 whole entry): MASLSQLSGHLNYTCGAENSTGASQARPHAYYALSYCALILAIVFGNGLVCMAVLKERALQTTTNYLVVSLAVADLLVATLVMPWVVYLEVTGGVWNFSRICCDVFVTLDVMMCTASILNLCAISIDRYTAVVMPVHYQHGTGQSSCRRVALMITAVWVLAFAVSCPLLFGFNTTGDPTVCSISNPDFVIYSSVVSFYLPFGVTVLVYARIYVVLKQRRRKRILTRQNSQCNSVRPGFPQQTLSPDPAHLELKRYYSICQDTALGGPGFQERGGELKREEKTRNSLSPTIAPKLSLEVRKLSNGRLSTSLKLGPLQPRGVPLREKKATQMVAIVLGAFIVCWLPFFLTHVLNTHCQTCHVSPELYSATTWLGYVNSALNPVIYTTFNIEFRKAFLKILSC
Chain of histaminergic H1 receptor (P35367 whole entry): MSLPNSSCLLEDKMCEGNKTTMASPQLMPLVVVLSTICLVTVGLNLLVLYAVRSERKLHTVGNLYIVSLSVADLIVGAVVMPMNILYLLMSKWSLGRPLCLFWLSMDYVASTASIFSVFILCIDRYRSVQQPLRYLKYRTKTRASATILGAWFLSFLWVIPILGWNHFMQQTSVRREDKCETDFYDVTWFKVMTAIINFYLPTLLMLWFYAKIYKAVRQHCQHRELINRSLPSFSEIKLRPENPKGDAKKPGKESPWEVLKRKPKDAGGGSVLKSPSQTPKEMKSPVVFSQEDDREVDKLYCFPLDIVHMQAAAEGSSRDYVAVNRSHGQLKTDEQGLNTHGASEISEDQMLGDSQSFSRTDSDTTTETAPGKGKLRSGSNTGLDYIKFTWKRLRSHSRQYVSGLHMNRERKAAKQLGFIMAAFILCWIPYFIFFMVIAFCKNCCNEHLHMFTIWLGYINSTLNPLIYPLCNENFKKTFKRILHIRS
Chain of dopaminergic D2 receptor (P14416 1-414 isoform P14416-2): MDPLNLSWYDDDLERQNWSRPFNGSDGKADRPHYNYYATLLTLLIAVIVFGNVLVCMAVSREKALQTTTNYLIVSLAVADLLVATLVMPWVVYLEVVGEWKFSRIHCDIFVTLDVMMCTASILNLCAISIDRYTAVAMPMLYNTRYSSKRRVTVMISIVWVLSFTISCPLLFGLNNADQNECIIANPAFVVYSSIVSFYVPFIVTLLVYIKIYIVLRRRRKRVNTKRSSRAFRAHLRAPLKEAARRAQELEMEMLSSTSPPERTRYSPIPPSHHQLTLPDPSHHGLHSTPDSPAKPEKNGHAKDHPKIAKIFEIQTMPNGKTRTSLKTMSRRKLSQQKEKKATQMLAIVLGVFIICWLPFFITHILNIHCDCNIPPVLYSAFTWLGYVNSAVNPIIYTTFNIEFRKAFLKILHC
T4 sequence (P50406 whole entry): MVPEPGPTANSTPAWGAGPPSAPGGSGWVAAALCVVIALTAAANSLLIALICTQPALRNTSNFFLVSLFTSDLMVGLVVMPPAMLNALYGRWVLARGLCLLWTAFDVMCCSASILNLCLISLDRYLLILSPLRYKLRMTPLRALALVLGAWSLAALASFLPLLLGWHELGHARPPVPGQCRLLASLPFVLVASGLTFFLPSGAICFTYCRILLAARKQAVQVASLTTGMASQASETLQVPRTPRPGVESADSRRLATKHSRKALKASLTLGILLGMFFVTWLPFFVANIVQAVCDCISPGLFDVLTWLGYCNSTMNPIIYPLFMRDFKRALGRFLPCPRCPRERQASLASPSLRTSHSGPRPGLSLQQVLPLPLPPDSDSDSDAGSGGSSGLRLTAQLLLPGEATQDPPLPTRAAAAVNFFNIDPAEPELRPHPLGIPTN
T1 sequence (P31645 whole entry): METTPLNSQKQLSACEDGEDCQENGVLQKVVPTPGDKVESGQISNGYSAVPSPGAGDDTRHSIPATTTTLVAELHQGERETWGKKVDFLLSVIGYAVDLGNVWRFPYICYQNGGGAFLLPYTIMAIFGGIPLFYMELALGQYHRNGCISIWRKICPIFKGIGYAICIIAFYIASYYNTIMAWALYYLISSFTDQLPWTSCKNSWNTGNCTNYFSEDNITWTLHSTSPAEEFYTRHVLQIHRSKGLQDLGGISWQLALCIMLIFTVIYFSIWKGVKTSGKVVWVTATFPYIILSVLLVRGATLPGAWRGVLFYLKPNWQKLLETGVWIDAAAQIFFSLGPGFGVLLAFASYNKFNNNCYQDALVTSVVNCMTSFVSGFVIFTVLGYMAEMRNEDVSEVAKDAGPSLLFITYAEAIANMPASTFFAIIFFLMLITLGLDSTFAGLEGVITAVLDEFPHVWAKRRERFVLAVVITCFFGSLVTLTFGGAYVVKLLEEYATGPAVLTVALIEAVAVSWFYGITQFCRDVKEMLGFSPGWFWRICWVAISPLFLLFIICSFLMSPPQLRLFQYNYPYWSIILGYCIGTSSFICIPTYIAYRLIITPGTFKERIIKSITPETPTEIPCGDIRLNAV
T5 sequence (P34969 whole entry): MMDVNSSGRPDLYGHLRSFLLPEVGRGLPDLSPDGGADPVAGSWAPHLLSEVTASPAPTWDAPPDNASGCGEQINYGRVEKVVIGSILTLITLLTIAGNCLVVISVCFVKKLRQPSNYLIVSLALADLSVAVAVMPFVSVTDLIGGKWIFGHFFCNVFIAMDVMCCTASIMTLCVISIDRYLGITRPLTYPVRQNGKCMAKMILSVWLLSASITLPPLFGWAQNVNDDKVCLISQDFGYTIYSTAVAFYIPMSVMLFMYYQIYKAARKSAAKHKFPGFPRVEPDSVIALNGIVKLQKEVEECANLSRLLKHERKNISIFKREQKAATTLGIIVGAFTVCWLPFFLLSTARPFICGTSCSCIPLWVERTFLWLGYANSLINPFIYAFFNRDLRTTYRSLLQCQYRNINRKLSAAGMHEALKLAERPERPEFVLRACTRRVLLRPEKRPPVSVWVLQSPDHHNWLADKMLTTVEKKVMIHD
T2 sequence (P20309 whole entry): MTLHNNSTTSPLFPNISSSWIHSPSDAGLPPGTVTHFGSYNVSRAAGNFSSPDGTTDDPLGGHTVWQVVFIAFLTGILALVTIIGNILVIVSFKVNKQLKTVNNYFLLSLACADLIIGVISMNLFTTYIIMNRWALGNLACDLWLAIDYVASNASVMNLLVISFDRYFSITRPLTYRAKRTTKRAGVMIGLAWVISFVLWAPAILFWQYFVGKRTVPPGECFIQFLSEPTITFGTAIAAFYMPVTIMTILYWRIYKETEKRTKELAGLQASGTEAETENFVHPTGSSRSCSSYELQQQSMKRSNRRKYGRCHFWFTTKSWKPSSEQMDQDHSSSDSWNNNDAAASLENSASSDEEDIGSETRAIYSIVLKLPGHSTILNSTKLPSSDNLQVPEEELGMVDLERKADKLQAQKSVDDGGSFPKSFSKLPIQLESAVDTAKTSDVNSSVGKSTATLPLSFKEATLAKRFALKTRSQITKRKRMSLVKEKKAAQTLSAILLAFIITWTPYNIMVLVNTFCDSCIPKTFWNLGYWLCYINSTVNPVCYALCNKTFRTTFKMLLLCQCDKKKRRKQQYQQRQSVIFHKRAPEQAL

For `Cc1cccc(S(=O)(=O)NCCCCN2CCC(c3noc4cc(F)ccc34)CC2)c1` [Compound 19, N-[4-[4-(6-Fluoro-1,2-benzoxazol-3-yl)piperidin-1-yl]butyl]-3-methylbenzenesulphonamide], the inhibition at 1 µM in experiment [1] stood at 8%; at muscarinic M3 receptor, 9%; in experiment [2] it was 56%; in experiment [3], 23%; in experiment [4], 99%; on dopaminergic D3 receptor, 90%. Further, the inhibition at 1 µM in experiment [5] turned out to be 69%; in experiment [6], 100%; on adrenergic α2C receptor, 100%; at dopaminergic D2 receptor it was 97%; in experiment [7], 64%; in [8], 100%. Besides, in experiment [9], the inhibition at 1 µM is 79%. Moreover, in the experiment on sigma σ receptor, the “σ [%]” value is 92%. The “α1 [%]” value with adrenergic α1 receptor was 99%. The activation at 1 µM in [3] and in experiment [4] was -1% throughout.
Regarding `Cc1cccc(S(=O)(=O)NCCN2CCC(c3noc4cc(F)ccc34)CC2)c1` [Compound 25, N-[2-[4-(6-Fluoro-1,2-benzoxazol-3-yl)piperidin-1-yl]ethyl]-3-methylbenzenesulphonamide], the inhibition at 1 µM came out at 20% in [1]; 6% on muscarinic M3 receptor; 32% in experiment [2]; 6% in experiment [3]; 97% in experiment [4]; 94% at dopaminergic D3 receptor. For the same molecule, the inhibition at 1 µM in experiment [5] is 71%; in experiment [6], 98%; at adrenergic α2C receptor, 98%; on dopaminergic D2 receptor, 96%; in [7], 92%; in experiment [8], 100%. For the same molecule, in experiment [9], the inhibition at 1 µM was 62%. Also, the “σ [%]” value in the experiment with sigma σ receptor is given as 76%. Also, the “α1 [%]” value with adrenergic α1 receptor was 98%. The activation at 1 µM is 0% in experiment [3] and -1% in [4].
On to `O=c1[nH]c2ccc(S(=O)(=O)NCCCCN3CCN(c4nsc5ccccc45)CC3)cc2o1` [Compound 4, N-(4-(4-(1,2-Benzothiazol-3-yl)piperazin-1-yl)butyl)-2-oxo-3H-1,3-benzoxazole-6-sulphonamide], for which the inhibition at 1 µM in experiment [1] is 26%; at muscarinic M3 receptor it was 3%; in experiment [2], 91%; in [3], 37%; in experiment [4], 81%; on dopaminergic D3 receptor, 98%. Also, the inhibition at 1 µM in experiment [5] came out at 87%; in experiment [6], 97%; at adrenergic α2C receptor, 96%; at dopaminergic D2 receptor, 96%; in [7], 99%; in experiment [8], 99%. Also, in experiment [9], the inhibition at 1 µM stood at 100%. In the experiment with sigma σ receptor, the “σ [%]” value is 1%. Also, in the experiment on adrenergic α1 receptor, the “α1 [%]” value is recorded as 96%. Besides, the activation at 1 µM in experiment [3] and in [4] was -1% each time.
In the case of `O=S(=O)(NCCN1CCC(c2noc3cc(F)ccc23)CC1)c1ccc2ccccc2c1` [Compound 24, N-[2-[4-(6-Fluoro-1,2-benzoxazol-3-yl)piperidin-1-yl]ethyl]naphthalene-2-sulphonamide], the inhibition at 1 µM in experiment [1] is 53%; at muscarinic M3 receptor it was 10%; in experiment [2] it was 65%; in [3], 9%; in experiment [4], 99%; on dopaminergic D3 receptor it was 98%. Moreover, the inhibition at 1 µM turned out to be 76% in experiment [5]; 95% in experiment [6]; 99% on adrenergic α2C receptor; 99% at dopaminergic D2 receptor; 80% in experiment [7]; 100% in experiment [8]. Also, the inhibition at 1 µM in experiment [9] is 56%. For the same molecule, the “σ [%]” value in the experiment with sigma σ receptor amounted to 80%. Further, the “α1 [%]” value with adrenergic α1 receptor worked out at 97%. Also, the activation at 1 µM in experiment [3] is 2%; in experiment [4], 0%.
Consider `O=c1[nH]c2ccc(S(=O)(=O)NCCN3CCN(c4nsc5ccccc45)CC3)cc2o1` [Compound 12, N-(2-(4-(1,2-Benzothiazol-3-yl)piperazin-1-yl)ethyl)-2-oxo-3H-1,3-benzoxazole-6-sulphonamide], for which the inhibition at 1 µM was 7% in experiment [1]; -9% at muscarinic M3 receptor; 17% in experiment [2]; -2% in experiment [3]; 68% in experiment [4]; 92% on dopaminergic D3 receptor. Also, the inhibition at 1 µM in experiment [5] is 80%; in [6] it was 89%; on adrenergic α2C receptor, 83%; at dopaminergic D2 receptor it was 93%; in [7] it was 99%; in [8], 99%. Further, the inhibition at 1 µM in experiment [9] amounted to 79%. Also, the “σ [%]” value in the experiment with sigma σ receptor amounted to 4%. Further, the “α1 [%]” value in the experiment on adrenergic α1 receptor was 67%. Besides, the activation at 1 µM in experiment [3] and in [4] was -1% throughout.
